Data taken from article PMC10578927, “An unconventional gatekeeper mutation sensitizes inositol hexakisphosphate kinases to an allosteric inhibitor” (eLife, 2023).

How the values were obtained:
IP6KA^wt = biological target: T1, IP6KA^wt (Entamoeba histolytica, UniProt N9UNA8); assay: NMR activity assay for EhIP6KA constructs; assay type: biochemical
T1 sequence (N9UNA8 1-270): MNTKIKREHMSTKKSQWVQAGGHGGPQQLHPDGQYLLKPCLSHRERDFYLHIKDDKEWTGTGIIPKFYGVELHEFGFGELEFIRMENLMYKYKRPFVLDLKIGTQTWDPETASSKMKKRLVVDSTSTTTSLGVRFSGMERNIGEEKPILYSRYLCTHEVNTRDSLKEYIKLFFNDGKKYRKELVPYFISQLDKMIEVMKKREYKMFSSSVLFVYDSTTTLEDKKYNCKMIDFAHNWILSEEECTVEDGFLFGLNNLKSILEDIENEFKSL
Protocol: The NMR assay for EhIP6KA activity was performed similarly as described before ([Harmel et al., 2019]) with slight alterations. Enzyme assays were performed in D2O in a total volume of 150 µl containing 20 mM MES pH* 6.4, 50 mM NaCl, 6 mM MgCl2, 1 mM ATP, 0.2 mg/ml BSA, 1 mM DTT, 5 mM creatine phosphate, and 1 U/ml creatine kinase (ATP-regenerating system) and 50 nM kinase if not otherwise stated. MES, NaCl, and BSA were prepared as buffer A and DTT and creatine phosphate as buffer B in D2O and were adjusted to pH* 6.4, respectively. If applicable, inhibitor was added as a DMSO-d6 stock in a twofold dilution series at a final DMSO concentration of 1% if not otherwise mentioned. Otherwise, DMSO-d6 was added to the same percentage. The samples were equilibrated at 37°C for 3 min and the reaction initiated by adding 100 µM [^13C6]-InsP6. The reaction was quenched with 400 µl quenching solution (20 mM EDTA pD 6.0, 68.75 mM NaCl) and transferred into an NMR tube before being measured on a Bruker […] 600 PLUS with an NMR pulse program developed previously ([Harmel et al., 2019]).

IP6K1^L210V = biological target: T2, IP6K1^L210V (Homo sapiens, UniProt Q92551, L210V); assay: Michaelis–Menten and Lineweaver–Burk kinetics (NMR); assay type: biochemical; details: versus ATP, two inhibitor concentrations
T2 construct: made in house; host or cells: E. coli Arctic Express
Protocol: Kinetic assays were performed in D2O in a total volume of 500 µl containing the same buffer components for IP6K and IP6KA constructs as stated for the NMR activity assays above. […] If applicable, inhibitor was added as a DMSO-d6 stock at a final DMSO concentration of 1%. Otherwise, DMSO-d6 was added to the same percentage. The samples were equilibrated at 37°C for 5 min and the reaction initiated by adding 100 µM [^13C6]-InsP6. The reaction time was adjusted so that conversion would not exceed 20% to remain in the linear range for initial velocity measurements. The reaction was quenched with 38 µl 700 mM EDTA pH* 8.0 and transferred into an NMR tube before being measured on a Bruker […] 600 PLUS with an NMR pulse program developed previously ([Harmel et al., 2019]). Initial velocities were calculated by dividing the amount of generated product by the product of reaction time in seconds and mass of the kinase in mg.

IP6K1^wt = biological target: T3, IP6K1^wt (Homo sapiens, UniProt Q92551); assay: High-throughput screen, reverse kinase reaction (5PP-InsP5 + ADP), Kinase-Glo luminescence; assay type: biochemical; details: dose-dependent reconfirmation
T3 construct: made in house; host or cells: E. coli Arctic Express

HCT116 cells = assay: Reverse transcription qPCR of 45S pre-rRNA transcript levels; assay type: cell-based; details: HCT116 cells treated 5 hr, RT-qPCR, preliminary experiment
Protocol: Total RNA was extracted using the RNeasy kit from QIAGEN. cDNA was generated using Thermo Fisher Scientific SuperScript III Reverse Transcriptase and 2 µg RNA following the vendor’s protocol. […] The cDNA was diluted 10-fold before conducting qPCR using SYBR Green PCR Master Mix and a StepOnePlus RT PCR System. The difference in transcript levels was calculated using the ΔΔct method and technical triplicates.

MBP-HsIP6K1^L210V = biological target: T4, MBP-HsIP6K1^L210V (Homo sapiens, UniProt Q92551, L210V); assay: Hydrogen deuterium exchange mass spectrometry (HDX-MS), apo vs inhibitor-bound; assay type: binding; details: IP6K1^L210V apo vs bound to FMP-201300
T4 construct: made in house; host or cells: E. coli Arctic Express
Protocol: (§1) Prior to initiation of deuterium exchange reactions, enzymes were incubated with inhibitor or DMSO blank for 15 min at RT (final concentration: 3 µM enzyme, 50 µM inhibitor, in a buffer consisting of 20 mM HEPES 7.4, 50 mM NaCl, 1% DMSO). From this mixture, 5 µl was taken per sample and 45 µl of deuterated buffer was added to initiate deuterium exchange (final concentrations: 300 nM enzyme, 5 µM inhibitor; final buffer concentration: 20 mM HEPES 7.4, 50 mM NaCl, 85.63% deuterium, 0.1% DMSO). Reactions were carried out in triplicate at 3 (3, 30, and 300 s) or four different time points (0.3, 3, 30, and 300 s) and were quenched by the addition of 20 µl of ice-cold quench buffer (final concentration: 0.57 M GuaHCL, 0.86% formic acid). Samples were snap-frozen in liquid nitrogen and then stored at −80°C until mass analysis.
(§2) Samples were rapidly thawed and injected onto an ultra-performance liquid chromatography (UPLC) at 2°C. […] Peptides were identified using data-dependent acquisition methods following tandem MS/MS experiments. MS/MS datasets were analyzed using MaxQuant against a database of purified proteins and known contaminants with an false discovery rate (FDR) cut-off of 1%.
(§3) Deuterium incorporation of peptides was automatically calculated using HDExaminer Software (Sierra Analytics). […]

MBP-HsIP6K1^wt = biological target: T5, MBP-HsIP6K1^wt (Homo sapiens, UniProt Q92551); assay: as above; assay type: binding; details: IP6K1^wt apo vs inhibitor-bound
T5 construct: made in house; host or cells: E. coli Arctic Express
Protocol: as §1, §2, §3

HepG2 = assay: Cytotoxicity, cell survival after 72 hr incubation; assay type: cell-based; details: HepG2, 10 µM
Protocol: (§4) Supplementary file elife-88982-supp2.xlsx: Supplementary file 2. Cytotoxicity of selected hits indicated by cell survival after 72 hr incubation at 10 µM concentration. All compounds were measured in independent triplicates and errors represent standard deviation. Redox activity of selected compounds measured via a photometric surrogate assay. Reactions contained 50 mM HEPES pH 7.5, 50 mM NaCl, 200 mM DTT, and 20 µM resazurin, and were incubated for 1 hr at 37°C.

HEK293 = assay: Cytotoxicity, cell survival after 72 hr incubation; assay type: cell-based; details: HEK293, 10 µM
Protocol: as §4

T2 sequence (Q92551 whole entry L210V): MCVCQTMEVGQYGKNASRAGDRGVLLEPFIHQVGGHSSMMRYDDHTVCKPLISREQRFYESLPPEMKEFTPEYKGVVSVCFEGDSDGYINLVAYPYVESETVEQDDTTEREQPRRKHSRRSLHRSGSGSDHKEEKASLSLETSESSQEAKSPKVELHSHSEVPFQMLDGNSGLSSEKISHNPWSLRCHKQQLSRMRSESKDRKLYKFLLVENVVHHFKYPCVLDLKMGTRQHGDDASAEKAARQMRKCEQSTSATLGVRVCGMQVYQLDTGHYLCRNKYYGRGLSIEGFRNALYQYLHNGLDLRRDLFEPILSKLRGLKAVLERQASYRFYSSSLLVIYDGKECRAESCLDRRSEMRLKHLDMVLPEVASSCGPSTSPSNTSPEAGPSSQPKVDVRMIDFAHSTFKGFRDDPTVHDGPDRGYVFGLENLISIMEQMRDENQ
T4 sequence (Q92551 whole entry L210V): as above
T5 sequence (Q92551 whole entry): as the sequence (Q92551 whole entry L210V) above, with V210L counted along it
T3 sequence (Q92551 whole entry): as the sequence (Q92551 whole entry L210V) above, with V210L counted along it

O=C(O)c1ccc2c(c1)C(=O)N(c1ccc(-c3nc4ccc(N5C(=O)c6ccc(C(=O)O)cc6C5=O)cc4[nH]3)cc1)C2=O [FMP-201300]
IC50 (IP6KA^wt): 5.82 µM | mechanism of inhibition (Lineweaver–Burk) (IP6K1^L210V): allosteric mechanism | IC50 (IP6K1^wt): 17 µM | reduction of ribosomal RNA synthesis (45S pre-rRNA transcript levels) (HCT116 cells): able to recapitulate this recently reported phenotype | change in deuterium exchange rates upon inhibitor binding (MBP-HsIP6K1^L210V): Major decreases in exchange rates were observed in proximity to the ATP-binding site | change in deuterium incorporation upon inhibitor binding (MBP-HsIP6K1^wt): no significant changes in deuterium incorporation were observed | cytotoxic (HepG2): nor cytotoxic | Cell number (%) (HepG2; 72 hr incubation): 99.1 ± 2.8% | cytotoxic (HEK293): nor cytotoxic | Cell number (%) (HEK293; 72 hr incubation): 100.1 ± 4.1%
